Values joined by “and” are separate entries in the source; they are usually repeats but may differ in a detail not shown here. Equal entries are not always repeated. “Also recorded” adds a separate entry of the source. Where two headings read alike, the source gives them in different places.
Experiments:
[1] = system: HCV genotype 1b replicon NS5B M423I; experiment: Transient transfection replicon assay in Huh 7 cells, NS5B M423I; assay type: cell-based; details: EC50 mutant / EC50 wild-type; mean of two experiments
Description: (§2) Huh 7 cells were transfected with either the wild-type or the mutant RNA constructs by electroporation. Luciferase activity was measured 72 hours after compound treatment and EC50 values determined from dose-response curves. Fold resistance was expressed as the ratio of the EC50 for mutant HCV replicon to the EC50 for wild-type HCV replicon.
(§3) Huh 7 cells were transfected with either the wild type or the mutant RNA constructs by electroporation. Luciferase activity was measured 72 hours after compound treatment and EC50 values determined from dose-response curves. Fold resistance was expressed as the ratio of the EC50 for mutant HCV replicon to the EC50 for wild-type HCV replicon. Results are expressed as the mean of two individual experiments.

Huh-luc/neo-ET = system: Huh-luc/neo-ET
Description: (§1) The anti-viral efficacy and cellular toxicity of non-transfected antimiR oligonucleotide in combination with approved and experimental anti-HCV therapeutics (boceprevir or telepravir, was determined in the reporter cell line Huh-luc/neo-ET. This cell line harbors the persistently replicating I389luc-ubi-neo/NS3-3′/ET replicon containing the firefly luciferase gene-ubiquitin-neomycin phosphotransferase fusion protein and EMCV IRES driven NS3-5B HCV coding sequences containing the ET tissue culture adaptive mutations (E1202G, T1208I, and K1846T). Eight dilutions of non-transfected antimiR oligonucleotide (bracketing the calculated EC50) were evaluated in triplicate on duplicate sets of three plates with five dilutions of each of the control compounds (bracketing the calculated EC50). One set of plates was used for the determination of cellular toxicity and the other set of plates is used for the determination of anti-viral efficacy. The efficacy and toxicity results was quantified with firefly luciferase activity and XTT dye reduction, respectively, and the results of the assay is imported into the Prichard and Shipman MacSynergy II software program. The MacSynery II analysis includes calculation of the dose response of the two (or more) compounds when used alone followed by calculation of the expected additive level of antiviral inhibition or toxicity when the compounds are used together based on the individual dose response curves. The expected level of activity at each of the concentration data points is compared to the experimentally determined antiviral activity in the assay. The expected activity was subtracted from the realized activity, yielding a negative, zero or positive value.
The reporter cell line Huh-luc/neo-ET was obtained from Dr. Ralf Bartenschlager (Department of Molecular Virology, Hygiene Institute, University of Heidelberg, Germany) by ImQuest BioSciences. This cell line harbors the persistently replicating 1389luc-ubi-neo/NS3-3′IET replicon containing the firefly luciferase gene-ubiquitinneomycin phosphotransferase fusion protein and EMCV IRES driven NS3-5B HCV coding sequences containing the ET tissue culture adaptive mutations (E 1202G, T12081, and KI846T). A stock culture of the Huh-luc/neo-ET was expanded by culture in DMEM supplemented with 10% FBS, 2 mM glutamine, penicillin (100 IU/mL)/streptomycin (100 f.Ig/mL) and IX nonessential amino acids plus I mg/ml G418. Prior to plating, the cells were split 1:4 and cultured for two passages in the same medium plus 250 f.Ig/mL G418. The cells were treated with trypsin and enumerated by staining with trypan blue and seeded into 96-well tissue culture plates at a cell culture density 5.0×10^3 cells per well in a volume of 85 f.IL per well and incubated at […] in an environment of 5% CO2 for 24 hours. Six plates were established for the determination of combination efficacy (EC50) and cytotoxicity (TC50) for each of the compound combinations (three plates each for efficacy and toxicity). […] Following incubation, the plates were assessed for anti-HCV activity by measurement of luciferase reporter activity and cellular cytotoxicity by XTT staining.

[2] = system: HCV genotype Ib replicon in Huh-luc/neoET cells; assay type: cell-based; details: for Efficacy, Antagonism vol: in combination with miravirsen (SPC3649), 95% confidence interval, median (≧3 experiments) or individual values
Description: as §1
This example was based on an in vitro evaluation of SPC3649 (miravirsen) in combination with anti-HCV drugs and experimental compounds. […] The combination antiviral assays were performed using the reporter cell line Huh-luc/neo-ET, which contains a bicistronic HCV genotype Ib replicon. Combination data were analyzed using MacSynergy II software at the 95%, confidence interval. The in vitro combination assays were designed to define the antiviral interaction of the two compounds and to determine if their interaction was synergistic or antagonistic.
The reporter cell line Huh-luc/neo-ET was obtained from Dr. Ralf Bartenschlager (Department of Molecular Virology, Hygiene Institute, University of Heidelberg, Germany) by ImQuest BioSciences. This cell line harbors the persistently replicating 1389luc-ubi-neo/NS3-3′IET replicon containing the firefly luciferase gene-ubiquitinneomycin phosphotransferase fusion protein and EMCV IRES driven NS3-5B HCV coding sequences containing the ET tissue culture adaptive mutations (E 1202G, T12081, and KI846T). […]

HCV genotype 1 = experiment: Phase 2a clinical trial, miravirsen monotherapy; assay type: in vivo, patients; details: for mean of the maximum HCV RNA decline from baseline: 5 weekly doses subcutaneously over 29 days
Description: Thirty-six treatment-naïve chronic HCV genotype 1 infected patients were enrolled into 3 sequential dosing cohorts and received 5 weekly doses of miravirsen 3, 5, or 7 mg/kg (n=27) or placebo (n=9) subcutaneously over 29 days and were followed up until week 18.

[3] = system: Huh-luc/neo-ET HCV genotype Ib replicon cells; assay type: cell-based; details: 28 days culture under G418 selective pressure, crystal violet
Description: Cell culture and Assay setup: The reporter cell line Huh-luc/neo-ET was obtained and prepare as described previously. Cells were plated into 10 cm tissue culture dishes at a density of 3×10^5 cells per plate in culture medium containing 250 μg/ml G418 and incubated for 24 hours at 37° C. in an environment of 5% CO2. Following the 24 hour incubation, dilutions of SPC3649, SPC4729, or telaprevir were prepared in cell culture medium (as above) with 750 μg/ml G418. Each of the dilutions was added to duplicate plates and the plates were incubated at 37° C. in an environment of 5% CO^2. Two additional plates received cell culture medium with 750 μg/ml G418 as a no-treatment control. […] The final concentration of SPC4729 was 10.0 μM. […] Following 28 days of passage, one set of dishes was stained with crystal violet and the other set of plates was utilized for expansion and establishment of resistant cell culture stocks.
Huh-luc/neo-ET HCY genotype Ib replicon cells were cultured under selective pressure in the presence of 750 μg/mL G4 I8 with and without four independent fixed concentrations of SPC3649 anti-miR oligonucleotide, or telaprevir, or one concentration of scrambled oligonucleotide SPC4729 for 28 days in tissue culture plates. Duplicate tissue culture dishes were established and maintained for each culture condition. […]

[4] = system: HCV genotype 1b replicon NS3 R155K; experiment: Transient transfection replicon assay in Huh 7 cells, NS3 R155K; assay type: cell-based; details: EC50 mutant / EC50 wild-type; mean of two experiments
Description: as §2, §3

all HCV genotypes = experiment: In vitro activity against HCV genotypes; assay type: cell-based
[5] = system: HCV genotype 1b replicon NS5B S282T; experiment: Transient transfection replicon assay in Huh 7 cells, NS5B S282T; assay type: cell-based; details: EC50 mutant / EC50 wild-type; mean of two experiments
Description: as §2, §3

[6] = system: HCV genotype 1b replicon NS3 A156T; experiment: Transient transfection replicon assay in Huh 7 cells, NS3 A156T; assay type: cell-based; details: EC50 mutant / EC50 wild-type; mean of two experiments
Description: as §2, §3

[7] = system: HCV genotype 1b replicon NS5A Y93H; experiment: Transient transfection replicon assay in Huh 7 cells, NS5A Y93H; assay type: cell-based; details: EC50 mutant / EC50 wild-type; mean of two experiments
Description: as §2, §3

Molecule | Fold Resistance NS5B M423I [1] | Cytotoxicity, Synergy vol (Huh-luc/neo-ET; human) | Efficacy, Antagonism vol [2] | Fold Resistance NS3 R155K [4] | Fold Resistance NS5B S282T [5] | Fold Resistance NS3 A156T [6] | Fold Resistance NS5A Y93H [7] | other results
CC(C)(C)C#Cc1cc(N(C(=O)[C@H]2CC[C@H](C)CC2)[C@H]2CC[C@H](O)CC2)c(C(=O)O)s1 [VX-222] | 4.4 fold | 0/−28.6; 0/0 μM^2% | −34.44 μM^2% | – | – | – | – | –
5′-^mCs^ocsAs^otstsGs^oTs^ocsas^mCs^oas^mCs^ots^mCs^omC^o-3′ (CCATTGTCACACTCC; all phosphorothioate, sugars by position and methylation of C not given here; further chemistry not fully specified) [miravirsen] | 1.7 fold | – | – | 1.2 fold | 1.9 fold | 1.0 fold | 0.9 fold | mean of the maximum HCV RNA decline from baseline (HCV genotype 1; 3 mg/kg): 1.2 log10 IU/mL; mean of the maximum HCV RNA decline from baseline (HCV genotype 1; 5 mg/kg): 2.9 log10 IU/mL; mean of the maximum HCV RNA decline from baseline (HCV genotype 1; 7 mg/kg): 3.0 log10 IU/mL; safety and tolerability, adverse events (HCV genotype 1; 3, 5 or 7 mg/kg): no dose-limiting adverse events; also recorded: safe, well-tolerated; escape mutations / emergence of viral resistance (HCV genotype 1; HCV genome miR-122 binding sites): no escape mutations were observed; also recorded: not seen; distinct individual resistant clonal populations ([3]; listed as SPC3649): failed to produce distinct individual resistant clonal populations; also recorded: distinct individual resistant clonal populations were not produced; efficacy against HCV genotypes in vitro (all HCV genotypes): effective against all HCV genotypes in vitro
C[C@@]1(O)[C@H](O)[C@@H](CO)O[C@H]1n1ccc(N)nc1=O [2′-C-Methylcytidine] | 1.0 fold | – | – | 0.8 fold | – | 0.9 fold | 1.0 fold | –
COC(=O)N[C@H](C(=O)N1CCC[C@H]1c1nc(-c2ccc(-c3ccc(-c4c[nH]c([C@@H]5CCCN5C(=O)[C@@H](NC(=O)OC)C(C)C)n4)cc3)cc2)c[nH]1)C(C)C [BMS 790052, Carbamic acid, N,N′-[[1,1′-biphenyl]-4,4′-diylbis[1H-imidazole-5,2-diyl-(2S)-2,1-pyrrolidinediyl[(1S)-1-(1-methylethyl)-2-oxo-2,1-ethanediyl]]]bis-, C,C′-dimethyl ester] | – | 0/−21.9 μM^2% | −24.5 μM^2% and −0.06 μM^2% | – | – | – | 29.9 fold | Cytotoxicity, Antagonism vol (Huh-luc/neo-ET; human): 0/−21.9 μM^2%
CCC[C@H](NC(=O)[C@@H]1[C@H]2CCC[C@H]2CN1C(=O)[C@@H](NC(=O)[C@@H](NC(=O)c1cnccn1)C1CCCCC1)C(C)(C)C)C(=O)C(=O)NC1CC1 [Telaprevir, (1S,3aR,6aS)-2-[(2S)-2-[[(2S)-2-Cyclohexyl-2-(pyrazine-2-carbonylamino)acetyl]amino]-3,3-dimethylbutanoyl]-N-[(3S)-1-(cyclopropylamino)-1,2-dioxohexan-3-yl]-3,3a,4,5,6,6a-hexahydro-1H-cyclopenta[c]pyrrole-1-carboxamide] | – | – | 0/−3.2 (±3.08/6.89) μM^2% | 4.6 fold | 1.0 fold | – | – | Cytotoxicity, Antagonism vol (Huh-luc/neo-ET; in combination with miravirsen (SPC3649), 95% confidence interval): 0/−5.05 μM^2%; Cytotoxicity, Antag Vol (Huh-luc/neo-ET; in combination with ribavirin, 95% confidence level): 0.00/−50.9 μM^2%; distinct individual resistant clonal populations [3]: production of distinct individual resistant clonal populations; Efficacy, Antag Vol ([2]; in combination with ribavirin, 95% confidence level, individual values): 37.5/22.6; μM^2%
